“And” between values parts separate entries of the source, which are not always exact repeats. Identical values can stand only once.
Assay: molar heat capacity at constant pressure
Settings: 101.33 kPa, Crystal, Small (less than 1 g) adiabatic calorimetry

C[C@@H](O)[C@H](N)C(=O)O [L-threonine]
Settings	molar heat capacity at constant pressure
5 K	0.06402 J/K/mol
7.37 K	0.2004 J/K/mol
7.65 K	0.2303 J/K/mol
8.44 K	0.3068 J/K/mol
9.19 K	0.3958 J/K/mol
9.43 K	0.4407 J/K/mol
9.67 K	0.4739 J/K/mol
9.9 K	0.4922 J/K/mol
10 K	0.5155 J/K/mol
10.18 K	0.5729 J/K/mol
10.51 K	0.6643 J/K/mol
10.84 K	0.7242 J/K/mol
11.17 K	0.8156 J/K/mol
11.5 K	0.9129 J/K/mol
11.83 K	0.9969 J/K/mol
12.17 K	1.113 J/K/mol
12.51 K	1.243 J/K/mol
12.84 K	1.353 J/K/mol
13.18 K	1.481 J/K/mol
13.53 K	1.619 J/K/mol
13.87 K	1.76 J/K/mol
14.22 K	1.913 J/K/mol
14.57 K	2.065 J/K/mol
14.92 K	2.237 J/K/mol
15 K	2.278 J/K/mol
15.27 K	2.377 J/K/mol
15.62 K	2.567 J/K/mol
15.97 K	2.765 J/K/mol
16.32 K	2.985 J/K/mol
16.68 K	3.152 J/K/mol
17.04 K	3.354 J/K/mol
17.4 K	3.602 J/K/mol
17.76 K	3.807 J/K/mol
18.11 K	4.063 J/K/mol
18.48 K	4.285 J/K/mol
18.83 K	4.521 J/K/mol
19.2 K	4.803 J/K/mol
19.56 K	5.051 J/K/mol
19.93 K	5.331 J/K/mol
20 K	5.346 J/K/mol
20.52 K	5.738 J/K/mol
21.27 K	6.302 J/K/mol
22.01 K	6.89 J/K/mol
22.77 K	7.515 J/K/mol
23.52 K	8.157 J/K/mol
24.28 K	8.822 J/K/mol
25 K	9.478 J/K/mol
25.04 K	9.545 J/K/mol
25.8 K	10.28 J/K/mol
26.57 K	10.94 J/K/mol
27.34 K	11.62 J/K/mol
28.11 K	12.31 J/K/mol
28.88 K	13.09 J/K/mol
29.66 K	13.84 J/K/mol
30 K	14.22 J/K/mol
30.44 K	14.63 J/K/mol
31.22 K	15.38 J/K/mol
32.01 K	16.18 J/K/mol
32.79 K	16.94 J/K/mol
33.58 K	17.68 J/K/mol
34.37 K	18.37 J/K/mol
35 K	19.04 J/K/mol
35.15 K	19.16 J/K/mol
35.94 K	19.87 J/K/mol
36.73 K	20.63 J/K/mol
37.52 K	21.36 J/K/mol
38.32 K	22.06 J/K/mol
39.11 K	22.79 J/K/mol
39.9 K	23.46 J/K/mol
40 K	23.61 J/K/mol
40.69 K	24.2 J/K/mol
41.48 K	24.95 J/K/mol
42.28 K	25.65 J/K/mol
43.08 K	26.38 J/K/mol
43.88 K	27.09 J/K/mol
44.68 K	27.83 J/K/mol
45 K	28.02 J/K/mol
45.48 K	28.52 J/K/mol
46.27 K	29.22 J/K/mol
47.07 K	29.92 J/K/mol
47.87 K	30.56 J/K/mol
48.67 K	31.17 J/K/mol
49.47 K	31.85 J/K/mol
50 K	32.34 J/K/mol
50.27 K	32.5 J/K/mol
51.07 K	33.12 J/K/mol
51.88 K	33.83 J/K/mol
52.68 K	34.53 J/K/mol
53.48 K	35.28 J/K/mol
54.29 K	36.14 J/K/mol
55.09 K	36.92 J/K/mol
55.9 K	37.74 J/K/mol
56.7 K	38.35 J/K/mol
57.51 K	38.9 J/K/mol
58.32 K	39.21 J/K/mol
59.12 K	39.75 J/K/mol
59.93 K	40.38 J/K/mol
60 K	40.57 J/K/mol
60.74 K	41.01 J/K/mol
61.55 K	41.64 J/K/mol
62.35 K	42.25 J/K/mol
63.15 K	42.88 J/K/mol
63.96 K	43.87 J/K/mol
64.76 K	44.47 J/K/mol
65.57 K	44.98 J/K/mol
66.38 K	45.55 J/K/mol
67.19 K	46.09 J/K/mol
67.99 K	46.67 J/K/mol
68.8 K	47.24 J/K/mol
69.61 K	47.68 J/K/mol
70 K	48.06 J/K/mol
70.54 K	48.31 J/K/mol
71.58 K	49.14 J/K/mol
72.63 K	49.7 J/K/mol
73.67 K	50.33 J/K/mol
74.72 K	50.78 J/K/mol
75.77 K	51.34 J/K/mol
76.82 K	51.96 J/K/mol
77.87 K	52.51 J/K/mol
78.92 K	53.08 J/K/mol
79.65 K	53.03 J/K/mol
79.97 K	53.66 J/K/mol
80 K	53.55 J/K/mol
80.45 K	53.52 J/K/mol
81.02 K	54.31 J/K/mol
81.25 K	53.96 J/K/mol
82.06 K	54.87 J/K/mol and 54.48 J/K/mol
82.86 K	54.97 J/K/mol
83.11 K	55.52 J/K/mol
83.66 K	55.42 J/K/mol
84.17 K	56.16 J/K/mol
84.46 K	55.88 J/K/mol
85.26 K	56.34 J/K/mol
86.06 K	56.87 J/K/mol
86.86 K	57.38 J/K/mol
87.65 K	57.86 J/K/mol
88.45 K	58.33 J/K/mol
89.25 K	58.77 J/K/mol
90 K	59.28 J/K/mol
90.05 K	59.23 J/K/mol
90.85 K	59.72 J/K/mol
91.64 K	60.19 J/K/mol
92.44 K	60.74 J/K/mol
93.24 K	61.3 J/K/mol
94.04 K	61.77 J/K/mol
94.84 K	62.19 J/K/mol
95.63 K	62.65 J/K/mol
96.43 K	63.12 J/K/mol
97.23 K	63.64 J/K/mol
98.02 K	64.16 J/K/mol
98.82 K	64.62 J/K/mol
99.62 K	65.04 J/K/mol
100 K	65.27 J/K/mol
100.5 K	65.53 J/K/mol
101.45 K	66.12 J/K/mol
102.41 K	66.61 J/K/mol
103.36 K	67.11 J/K/mol
104.32 K	67.67 J/K/mol
105.27 K	68.2 J/K/mol
106.22 K	68.79 J/K/mol
107.18 K	69.35 J/K/mol
108.13 K	69.83 J/K/mol
109.09 K	70.36 J/K/mol
110 K	70.84 J/K/mol
110.05 K	70.8 J/K/mol
111 K	71.32 J/K/mol
111.95 K	71.94 J/K/mol
112.91 K	72.42 J/K/mol
113.86 K	72.95 J/K/mol
114.82 K	73.43 J/K/mol
115.77 K	73.97 J/K/mol
116.72 K	74.36 J/K/mol
117.68 K	74.92 J/K/mol
118.63 K	75.5 J/K/mol
119.59 K	75.89 J/K/mol
120 K	76.16 J/K/mol
120.53 K	76.35 J/K/mol
121.49 K	76.8 J/K/mol
122.44 K	77.45 J/K/mol
123.39 K	77.91 J/K/mol
124.35 K	78.3 J/K/mol
125.3 K	78.8 J/K/mol
126.25 K	79.27 J/K/mol
127.21 K	79.82 J/K/mol
128.16 K	80.26 J/K/mol
129.11 K	80.78 J/K/mol
130 K	81.23 J/K/mol
130.07 K	81.26 J/K/mol
131.02 K	81.7 J/K/mol
131.97 K	82.11 J/K/mol
132.93 K	82.72 J/K/mol
133.87 K	83.14 J/K/mol
134.82 K	83.73 J/K/mol
135.76 K	84.14 J/K/mol
136.71 K	84.56 J/K/mol
137.66 K	85.22 J/K/mol
138.61 K	85.64 J/K/mol
139.56 K	85.97 J/K/mol
140 K	86.22 J/K/mol
140.51 K	86.55 J/K/mol
141.46 K	87.05 J/K/mol
142.41 K	87.47 J/K/mol
143.36 K	87.8 J/K/mol
144.31 K	88.38 J/K/mol
